Measured values taken from PubChem BioAssay AID248 (DTP/NCI, 2004).
Where “and” joins values, the source holds several entries; their conditions need not be identical. Equal entries are not always repeated. Inconclusive results and toxic doses are left out. Cut-off read from the data, not from the text of the source: active = T/C of 150% or more; inactive = T/C below 125%.

Tested on: L1210 leukemia ip in BDF1 mice, survival T/C
Assay: NCI In Vivo Anticancer Drug Screen. Data for tumor model L1210 Leukemia (intraperitoneal) in B6D2F1 (BDF1) mice
Conditions: endpoint: mean survival time, higher = longer survival
In short: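 Transplantable tumor model; survival measured in treated vs vehicle control mice. Value = treated/control.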

[1] = dose: 100.0 mg/kg/injection, schedule: Q01DX001 (ip), vehicle: saline with Tween-80
[2] = dose: 100.0 mg/kg/injection, schedule: Q01DX009 (ip), vehicle: Klucel (hydroxypropylcellulose) (HPC)
[3] = dose: 100.0 mg/kg/injection, schedule: Q04DX003 (ip), vehicle: Klucel (hydroxypropylcellulose) (HPC)
[4] = dose: 200.0 mg/kg/injection, schedule: Q01DX001 (ip), vehicle: saline with Tween-80
[5] = dose: 200.0 mg/kg/injection, schedule: Q01DX009 (ip), vehicle: Klucel (hydroxypropylcellulose) (HPC)
[6] = dose: 200.0 mg/kg/injection, schedule: Q04DX003 (ip), vehicle: Klucel (hydroxypropylcellulose) (HPC)
[7] = dose: 400.0 mg/kg/injection, schedule: Q01DX001 (ip), vehicle: saline with Tween-80
[8] = dose: 400.0 mg/kg/injection, schedule: Q01DX009 (ip), vehicle: Klucel (hydroxypropylcellulose) (HPC)
[9] = dose: 400.0 mg/kg/injection, schedule: Q04DX003 (ip), vehicle: Klucel (hydroxypropylcellulose) (HPC)
[10] = dose: 100.0 mg/kg/injection, schedule: Q01DX009 (ip), vehicle: saline with Tween-80
[11] = dose: 200.0 mg/kg/injection, schedule: Q01DX009 (ip), vehicle: saline with Tween-80
[12] = dose: 400.0 mg/kg/injection, schedule: Q01DX009 (ip), vehicle: saline with Tween-80
[13] = dose: 50.0 mg/kg/injection, schedule: Q01DX001 (ip), vehicle: saline
[14] = dose: 100.0 mg/kg/injection, schedule: Q01DX001 (ip), vehicle: Klucel (hydroxypropylcellulose) (HPC)
[15] = dose: 200.0 mg/kg/injection, schedule: Q01DX001 (ip), vehicle: Klucel (hydroxypropylcellulose) (HPC)
[16] = dose: 400.0 mg/kg/injection, schedule: Q01DX001 (ip), vehicle: Klucel (hydroxypropylcellulose) (HPC)
[17] = dose: 50.0 mg/kg/injection, schedule: Q01DX009 (ip), vehicle: saline with Tween-80

Measured: T/C

COC1(OC)C2(Cl)CCC1(Cl)C(Cl)=C2Cl
inactive: dose: 100.0 mg/kg/injection, schedule: Q01DX001 (ip), vehicle: other 98 % of control | [1] 100 % of control | [2] 100 % of control | [3] 102 % of control | dose: 200.0 mg/kg/injection, schedule: Q01DX001 (ip), vehicle: other 98 % of control | [4] 100 % of control | [5] 103 % of control | [6] 94 % of control | dose: 400.0 mg/kg/injection, schedule: Q01DX001 (ip), vehicle: other 92 % of control | [7] 97 % of control | [8] 90 % of control | [9] 96 % of control

CCOC(=O)c1c(C)cc(O)cc1O
inactive: [10] 114 % of control | [11] 106 % of control | [12] 102 % of control

Nc1ccccc1SC(CC(=O)c1ccc(-c2ccccc2)cc1)c1ccco1 (stereo not given)
inactive: [10] 94 % of control | dose: 100.0 mg/kg/injection, schedule: Q04DX002 (ip), vehicle: saline with Tween-80 105 % of control | [11] 91 % of control | dose: 200.0 mg/kg/injection, schedule: Q04DX002 (ip), vehicle: saline with Tween-80 102 % of control | [12] 91 % of control | dose: 400.0 mg/kg/injection, schedule: Q04DX002 (ip), vehicle: saline with Tween-80 91 % of control

C(CCCCCC1CCC2CCCC2C1)CCCCC1CCC2CCCC2C1 (stereo not given)
inactive: [1] 87 % of control | [4] 101 % of control | [7] 87 % of control

CCCCCC[As](=O)(O)CCCCCC
inactive: [13] 103 % of control

S=C(Nc1nccs1)Nc1nccs1
inactive: [14] 100 % of control | [15] 97 % of control | [16] 89 % of control

CN(C)Cc1cc(C(C)(C)CC(C)(C)C)cc(CN(C)C)c1O
inactive: [2] 97 % of control | [5] 99 % of control

O=S(=O)(Nc1ccc(N(c2c(Cl)c(Cl)c(NS(=O)(=O)c3ccccc3)c(Cl)c2Cl)S(=O)(=O)c2ccccc2)cc1)c1ccccc1
inactive: [14] 93 % of control | [15] 96 % of control | [16] 95 % of control

CC1(C)C2CCC13CC(=O)OC3C2 (stereo not given)
inactive: dose: 0.78 mg/kg/injection, schedule: Q01DX009 (ip), vehicle: saline 105 % of control | dose: 0.78 mg/kg/injection, schedule: Q04DX003 (ip), vehicle: acetone 101 % of control | dose: 1.56 mg/kg/injection, schedule: Q01DX009 (ip), vehicle: saline 100 % of control | dose: 1.56 mg/kg/injection, schedule: Q04DX003 (ip), vehicle: acetone 92 % of control | dose: 3.12 mg/kg/injection, schedule: Q01DX009 (ip), vehicle: saline 102 % of control | dose: 3.12 mg/kg/injection, schedule: Q04DX003 (ip), vehicle: acetone 98 % of control | dose: 4.6 mg/kg/injection, schedule: Q01DX009 (ip), vehicle: saline 89 % of control | dose: 7.0 mg/kg/injection, schedule: Q01DX009 (ip), vehicle: saline 91 % of control | dose: 10.5 mg/kg/injection, schedule: Q01DX009 (ip), vehicle: saline 104 % of control | dose: 15.0 mg/kg/injection, schedule: Q01DX009 (ip), vehicle: acetone 92 % of control

Cc1ccc(-n2ccnc2)c(N=Cc2ccc(N(CCCl)CCCl)cc2F)c1
inactive: dose: 100.0 mg/kg/injection, schedule: Q04DX002 (ip), vehicle: Klucel (hydroxypropylcellulose) (HPC) 98 % of control | dose: 200.0 mg/kg/injection, schedule: Q04DX002 (ip), vehicle: Klucel (hydroxypropylcellulose) (HPC) 106 % of control | dose: 400.0 mg/kg/injection, schedule: Q04DX002 (ip), vehicle: Klucel (hydroxypropylcellulose) (HPC) 106 % of control

CCN(CC)C(=O)/C=C\c1ccccc1
inactive: [17] 102 % of control | [10] 102 % of control | [11] 112 % of control

COc1ccc(Cl)cc1NC(=O)Nc1ccc(Cl)cc1Cl
inactive: [2] 94 % of control | [3] 111 % of control | [5] 96 % of control | [6] 91 % of control | [8] 94 % of control | [9] 94 % of control

N#Cc1ccc(OCCCOc2ccccc2)cc1
inactive: [1] 100 % of control | [4] 102 % of control | [7] 93 % of control

Nc1nc(N)c2nc3c(nc2n1)CN(c1ccc(C(=O)O)cc1)C3=O
inactive: dose: 100.0 mg/kg/injection, schedule: Q01DX009 (ip), vehicle: saline 104 % of control | dose: 200.0 mg/kg/injection, schedule: Q01DX009 (ip), vehicle: saline 89 % of control

C=CCn1c(=S)[nH]c2ccccc2c1=O
inactive: dose: 100.0 mg/kg/injection, schedule: Q04DX003 (ip), vehicle: saline with Tween-80 93 % of control | [11] 91 % of control | dose: 200.0 mg/kg/injection, schedule: Q04DX003 (ip), vehicle: saline with Tween-80 94 % of control | [12] 89 % of control | dose: 400.0 mg/kg/injection, schedule: Q04DX003 (ip), vehicle: saline with Tween-80 96 % of control

O=C(Oc1cc(OC(=O)c2ccccc2)cc(OC(=O)c2ccccc2)c1)c1ccccc1
inactive: [2] 95 % of control | [3] 100 % of control | [5] 95 % of control | [6] 100 % of control | [8] 95 % of control | [9] 100 % of control

CCN1/C(=C/c2ccc3ccccc3[n+]2CC)C=Cc2ccccc21
inactive: dose: 2.0 mg/kg/injection, schedule: Q01DX001 (ip), vehicle: other 103 % of control | dose: 8.0 mg/kg/injection, schedule: Q01DX001 (ip), vehicle: other 110 % of control | dose: 9.5 mg/kg/injection, schedule: Q01DX001 (ip), vehicle: other 101 % of control

O=C(O)c1cc(Cl)ccn1
inactive: dose: 25.0 mg/kg/injection, schedule: Q01DX009 (ip), vehicle: Klucel (hydroxypropylcellulose) (HPC) 98 % of control | dose: 50.0 mg/kg/injection, schedule: Q01DX009 (ip), vehicle: Klucel (hydroxypropylcellulose) (HPC) 102 % of control | [2] 101 % of control and 107 % of control

O=C(CCCC(=O)N/N=C/c1c2ccccc2cc2ccccc12)N/N=C/c1c2ccccc2cc2ccccc12
inactive: [13] 100 % of control | dose: 100.0 mg/kg/injection, schedule: Q01DX001 (ip), vehicle: saline 102 % of control | dose: 200.0 mg/kg/injection, schedule: Q01DX001 (ip), vehicle: saline 96 % of control | dose: 400.0 mg/kg/injection, schedule: Q01DX001 (ip), vehicle: saline 96 % of control

CCOC(=O)Nc1cncc(NC(=O)OCC)n1
inactive: dose: 6.25 mg/kg/injection, schedule: Q01DX009 (ip), vehicle: water 96 % of control | dose: 12.5 mg/kg/injection, schedule: Q01DX009 (ip), vehicle: water 90 % of control | dose: 25.0 mg/kg/injection, schedule: Q01DX009 (ip), vehicle: water 117 % of control and 91 % of control | dose: 50.0 mg/kg/injection, schedule: Q01DX009 (ip), vehicle: water 93 % of control and 91 % of control | dose: 100.0 mg/kg/injection, schedule: Q01DX009 (ip), vehicle: water 96 % of control and 101 % of control | dose: 200.0 mg/kg/injection, schedule: Q01DX009 (ip), vehicle: water 111 % of control

CCOC(=O)C(C(C)=O)C1c2ccccc2Nc2ccccc21 (stereo not given)
inactive: [17] 98 % of control | [10] 109 % of control | [11] 106 % of control
